Active and inactive are the calls of the source. The rule behind the calls is not given here.
Legend:
A2780 [1] = test: Cytotoxicity against human A2780 cells assessed as cell viability measured after 48 hrs by MTT assay; format: functional, cell-based; conditions: A2780, 48 h
Huh-7 = test: Cytotoxicity against human Huh-7 cells assessed as cell viability measured after 48 hrs by MTT assay; format: functional, cell-based; conditions: Huh-7, 48 h
A2780 [2] = test: Induction of apoptosis in human A2780 cells assessed as apoptotic rate measured at 2 to 8 nM by Annexin V-FITC/PI flow cytometry; format: functional, cell-based; conditions: dose 2-8 nM, time 24-72 hrs, TDE = time-dependent effect
A2780 [3] = test: Induction of apoptosis in human A2780 cells assessed as increase in cleaved caspase 3 level measured after 12 to 48 hrs by Western blot analysis; format: functional, cell-based; conditions: dose 5-20 nM, time 12-48 hrs
A2780 [4] = test: Induction of apoptosis in human A2780 cells assessed as increase in cleaved PARP level measured at 5 to 20 nM by Western blot analysis; format: functional, cell-based; conditions: dose 5-20 nM, time 12-48 hrs, TDE = time-dependent effect
A2780 [5] = test: Induction of apoptosis in human A2780 cells assessed as increase in cleaved caspase 9 level measured at 5 to 20 nM by Western blot analysis; format: functional, cell-based; conditions: dose 5-20 nM, time 12-48 hrs, TDE = time-dependent effect
A2780 [6] = test: Induction of apoptosis in human A2780 cells assessed as decrease in cleaved Bcl-2 level measured at 5 to 20 nM after 12 to 48 hrs by Western blot analysis; format: functional, cell-based; conditions: dose 5-20 nM, time 12-48 hrs
A2780 [7] = test: Cytotoxicity against human A2780 cells assessed as cell viability measured after 24 to 72 hrs by MTT assay; format: functional, cell-based; conditions: dose 4-64 nM, time 24-72 hrs
[8] = target: Cellular tumor antigen p53 (Homo sapiens) (UniProt P04637); test: Activation of p53 in human A2780 cells assessed as increase phosphorylation of p38 at 5 to 20 nM measured after 24 hrs by Western blot analysis; format: cell-based; conditions: filed as activator, dose 5-20 nM
Sequence of Cellular tumor antigen p53 (Homo sapiens) (P04637 whole entry, looked up): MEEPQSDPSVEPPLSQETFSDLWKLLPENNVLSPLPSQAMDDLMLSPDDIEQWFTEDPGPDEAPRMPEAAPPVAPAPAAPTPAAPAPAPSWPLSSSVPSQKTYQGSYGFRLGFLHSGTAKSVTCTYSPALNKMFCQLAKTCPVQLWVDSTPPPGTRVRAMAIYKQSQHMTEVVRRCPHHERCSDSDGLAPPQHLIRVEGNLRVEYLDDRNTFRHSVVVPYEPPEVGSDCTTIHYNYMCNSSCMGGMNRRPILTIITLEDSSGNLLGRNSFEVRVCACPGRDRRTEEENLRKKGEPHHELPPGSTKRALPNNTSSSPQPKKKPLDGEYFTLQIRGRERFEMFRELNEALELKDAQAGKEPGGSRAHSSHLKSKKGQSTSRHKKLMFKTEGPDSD

A2780 [9] = test: Induction of apoptosis in human A2780 cells assessed as viable cells at 800 nM measured after 24 hrs by Annexin V-FITC/PI flow cytometry (reference value: 96.1%); format: functional; conditions: read-out: Activity
A2780 [10] = test: Induction of apoptosis in human A2780 cells assessed as late apoptotic cells in presence of bafilomycin A1 at 800 nM measured after 24 hrs by Annexin V-FITC/PI flow cytometry (reference value: 1.58%); format: functional
A2780 [11] = test: Induction of apoptosis in human A2780 cells assessed as viable cells in presence of SB203580 at 8 nM measured after 24 to 72 hrs by Annexin V-FITC/PI flow cytometry (reference value: 94.2%); format: functional; conditions: time 24-72 hrs
A2780 [12] = test: Induction of apoptosis in human A2780 cells assessed as necrotic cells in presence of SB203580 at 8 nM measured after 24 to 72 hrs by Annexin V-FITC/PI flow cytometry (reference value: 0.39%); format: functional; conditions: time 24-72 hrs
A2780 [13] = test: Cytotoxicity against human A2780 cells assessed as cell viability in presence of p53 SiRNA 1 measured after 48 hrs by MTT assay; format: functional, cell-based
A2780 [14] = test: Cytotoxicity against human A2780 cells assessed as cell viability in presence of p53 SiRNA 2 measured after 48 hrs by MTT assay; format: functional, cell-based
A2780 [15] = test: Antiproliferative activity against human A2780 cells assessed as number of fluorescent dots in presence of p53 SiRNA 1 at 4 nM measured after 24 hrs by KitkFluor555 Click-iT EdU Kit staining assay; format: functional, cell-based
A2780 [16] = test: Antiproliferative activity against human A2780 cells assessed as number of fluorescent dots in presence of p53 SiRNA 2 at 4 nM measured after 24 hrs by KitkFluor555 Click-iT EdU Kit staining assay; format: functional, cell-based
A2780 [17] = test: Induction of apoptosis in human A2780 cells assessed as viable cells at 4 nM measured after 24 hrs by Annexin V-FITC/PI flow cytometry (reference value: 94.2%); format: functional; conditions: read-out: Activity
A2780 [18] = test: Induction of apoptosis in human A2780 cells assessed as viable cells in presence of p53 SiRNA 1 at 4 nM measured after 24 hrs by Annexin V-FITC/PI flow cytometry (reference value: 94.2%); format: functional
A2780 [19] = test: Induction of LC3II expression in human A2780 cells in presence of autophagy inhibitor bafilomycin A1 at 5 to 20 nM measured after 24 hrs by Western blot analysis; format: functional, cell-based; conditions: dose 5-20 nM
A2780 [20] = test: Induction of cleaved PARP level in human A2780 cells in presence of autophagy inhibitor bafilomycin A1 at 5 to 20 nM measured after 24 hrs by Western blot analysis; format: functional, cell-based; conditions: dose 5-20 nM
A2780 [21] = test: Antiproliferative activity against human A2780 cells assessed as number of fluorescent dots in presence of p53 SiRNA 1 in presence of bafilomycin A1 at 4 nM measured after 24 hrs by KitkFluor555 Click-iT EdU Kit staining assay; format: functional, cell-based
A2780 [22] = test: Induction of cell cycle arrest in human A2780 cells assessed as accumulation of cells at S phase at 1 nM measured after 24 hrs by PI staining based ell Cycle Analysis Kit (KeyGEN) (reference value: 10%); format: functional
A2780 [23] = test: Induction of cell cycle arrest in human A2780 cells assessed as accumulation of cells at S phase at 2 nM measured after 24 hrs by PI staining based ell Cycle Analysis Kit (KeyGEN) (reference value: 10%); format: functional
A2780 [24] = test: Induction of cell cycle arrest in human A2780 cells assessed as accumulation of cells at G2 phase at 2 nM measured after 24 hrs by PI staining based ell Cycle Analysis Kit (KeyGEN) (reference value: 22.2%); format: functional
A2780 [25] = test: Induction of cell cycle arrest in human A2780 cells assessed as accumulation of cells at G1 phase at 4 nM measured after 24 hrs by PI staining based ell Cycle Analysis Kit (KeyGEN) (reference value: 53.9%); format: functional
A2780 [26] = test: Induction of cell cycle arrest at S phase in human A2780 cells assessed as increase in cyclin E1 proteins measured after 24 hrs by Western blot analysis; format: functional, cell-based; conditions: dose 5-20 nM
A2780 [27] = test: Induction of cell cycle arrest at S phase in human A2780 cells assessed as increase in CDK2 proteins measured after 24 hrs by Western blot analysis; format: functional, cell-based; conditions: dose 5-20 nM
A2780 [28] = test: In vivo antitumor activity against human A2780 cells subcutaneously inoculated in BALB/c-nu mouse assessed as reduction in tumor volume at 3 to 5 mg/kg, ip administered every day for 20 days; format: functional, organism-based; conditions: dose 3-5 mg/kg, time 20.0 day
A2780 [29] = test: In vivo antitumor activity against human A2780 cells subcutaneously inoculated in BALB/c-nu mouse assessed as reduction in tumor weight at 3 to 5 mg/kg, ip administered every day for 20 days; format: functional, organism-based; conditions: dose 3-5 mg/kg, time 20.0 day
[30] = Toxicity in BALB/c-nu mouse subcutaneously inoculated with human A2780 cells assessed as morphological changes of liver at 3 to 5 mg/kg, ip administered every day for 20 days by HE staining analysis; format: organism-based; conditions: in vivo, sc, 480 h, dose 3-5 mg/kg, time 20 day
[31] = Toxicity in BALB/c-nu mouse subcutaneously inoculated with human A2780 cells assessed as morphological changes of spleen at 3 to 5 mg/kg, ip administered every day for 20 days by HE staining analysis; format: organism-based; conditions: in vivo, sc, 480 h, dose 3-5 mg/kg, time 20 day

SMILES: CC(C)[C@]12O[C@H]1[C@@H]1O[C@]13[C@]1(O[C@H]1C[C@H]1C4=C(CC[C@@]13C)C(=O)OC4)[C@@H]2O [TRIPTOLIDE]
- IC50 (A2780 [1]): 1830 nM
- IC50 (Huh-7): 74.6 nM
- Activity (A2780 [2]): Tde
- Activity (A2780 [3]): Dose-Dependent Effect
- Activity (A2780 [4]): Tde
- Activity (A2780 [5]): Tde
- Activity (A2780 [6]): Dose-Dependent Effect
- Activity (A2780 [7]): Dose-Dependent Effect
- Activity [8]: Active
- viability at 0.8 µM (A2780 [9]): 74%
- Activity (A2780 [10]): 3.96%
- Activity (A2780 [11]): 69%
- Activity (A2780 [12]): 5.87%
- Activity (A2780 [13]): inactive
- Activity (A2780 [14]): inactive
- Activity (A2780 [15]): inactive
- Activity (A2780 [16]): inactive
- viability at 0.004 µM (A2780 [17]): 33.1%
- Activity (A2780 [18]): 65.9%
- Activity (A2780 [19]): inactive
- Activity (A2780 [20]): inactive
- Activity (A2780 [21]): inactive
- Activity (A2780 [22]): 14.4%
- Activity (A2780 [23]): 19.9%
- Activity (A2780 [24]): 15.3%
- Activity (A2780 [25]): 68.9%
- Activity (A2780 [26]): Dose-Dependent Effect
- Activity (A2780 [27]): Dose-Dependent Effect
- Activity (A2780 [28]): Active
- Activity (A2780 [29]): Active
- Activity [30]: Non-Toxic
- Activity [31]: Non-Toxic
